Tests used:
[1] = test system: Clostridium difficile ATCC 9689; assay: MIC broth dilution per CLSI M11-A8, modified Brucella broth; assay type: cell-based; conditions: strain ATCC 9689; Brucella broth mix + yeast, no blood/hemin; n = 12
Procedure: (§1) MIC experiments for Puupehenone were carried out in accordance with CLSI M11-A8 for broth dilutions. The levels of antimicrobial were achieved via serial dilution and listed as follows; 32 ug/mL, 16 ug/mL. 8 ug/mL, 4 ug/mL, 2 ug/mL, 1 ug/mL, 0.5 ug/mL, 0.25 ug/mL, 0.125 ug/mL, 0.0625 ug/mL/. Metranidazole was used a positive control. The only deviation from the CLSI was a modification to the media. […] This was noted due to comparisons with previous BHIS experiments. Thus, the media was modified to resemble the BHIS media, with only Brucella broth mix (28 g/L) and yeast (5 g/L). The reason for the decreased efficacy of the drug when in blood based media is still being investigated. The MICs against different C. difficile strains (ATCC9689, NAP1027, and 630 were determined for both Puupehone and Matranidazole See Table 1.

[2] = test system: Clostridium difficile NAP1027; assay: as above; assay type: cell-based; conditions: strain NAP1027; Brucella broth mix + yeast, no blood/hemin; n = 12
Procedure: as §1

[3] = test system: Clostridium difficile 630; assay: as above; assay type: cell-based; conditions: strain 630; Brucella broth mix + yeast, no blood/hemin; n = 12
Procedure: as §1

[4] = test system: C. difficile strain VPI 10463 or strain ATCC 9689; assay: 96-well growth inhibition test in BHIS media, optical density readout; assay type: cell-based, Clostridium difficile; conditions: puupehenone in MeOH, 40 μL-well, Trial 1 (0 μL-well 0.0816)
Procedure: Tests were performed in a Coy anaerobic chamber (Coy Labs Grass Lake, Mich.). The compound Puupehenone was dissolved in either methanol or DMSO for testing. Using a 96-well plate, 200 μL of BHIS media was added to 12 wells. One was the control (BHIS media alone). The sequential nine wells have increments of 5 μL of puupehenone. The remaining two wells have no puupehenone but one has 20 μL and another has 40 μL of methanol. These last wells are a separate test to determine if methanol influences the growth of C. difficile. Then 10 μL of C. difficile strain VPI 10463 or strain ATCC 9689 was added to each well except for the control. Trials with DMSO were performed in increments of 2 μL of puupehenone. Effects of puupehenone on C. difficile were tested based on optical density (e.g. OD500 nm, OD600 nm or OD630 nm, inter alia) using an optical reader as is standard in the art. Results

Cc1ncc([N+](=O)[O-])n1CCO [Metranidazole, reference compound]
MIC [1]: 0.25 µg/mL | MIC [2]: 0.25 µg/mL | MIC [3]: 0.5 µg/mL

CC1(C)CCC[C@]2(C)[C@H]3C=C4C=C(O)C(=O)C=C4O[C@@]3(C)CC[C@@H]12 [Puupehenone, puupehenone]
optical density (growth of C. difficile) [4]: 0.0742 | MIC [1]: 4 µg/mL | MIC [2]: 8 µg/mL | MIC [3]: 8 µg/mL
